Measurements reported in PubChem BioAssay (NCI).
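All cell lines were grown in 96-well plates and treated with compound for 48 hours. Abbreviation: GI50, concentration required for 50% inhibition of growth. The concentration for full growth arrest is given as TGI.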

Experiments:
Experiment in all cases: NCI tumour cell line growth inhibition, 48 h
MDA-MB-231 breast = system: MDA-MB-231 breast
RXF 393 renal = system: RXF 393 renal
A498 renal = system: A498 renal
786-0 renal = system: 786-0 renal
COLO 205 colon = system: COLO 205 colon
SF-539 CNS = system: SF-539 CNS
MDA-MB-435 = system: MDA-MB-435
SR leukemia = system: SR leukemia
HCC-2998 colon = system: HCC-2998 colon
UACC-257 melanoma = system: UACC-257 melanoma
SW-620 colon = system: SW-620 colon
BT-549 breast = system: BT-549 breast
MOLT-4 leukemia = system: MOLT-4 leukemia
HOP-92 NSCLC = system: HOP-92 NSCLC
NCI-H460 lung = system: NCI-H460 lung
UACC-62 melanoma = system: UACC-62 melanoma
SNB-19 CNS = system: SNB-19 CNS
HCT-116 colon = system: HCT-116 colon
NCI-H226 lung = system: NCI-H226 lung
UO-31 renal = system: UO-31 renal
A549 NSCLC = system: A549 NSCLC
MCF7 breast = system: MCF7 breast
DU-145 prostate = system: DU-145 prostate
CCRF-CEM leukemia = system: CCRF-CEM leukemia
HL-60(TB) leukemia = system: HL-60(TB) leukemia
KM12 colon = system: KM12 colon
HCT-15 colon = system: HCT-15 colon
SK-MEL-28 melanoma = system: SK-MEL-28 melanoma
LOX IMVI melanoma = system: LOX IMVI melanoma
HOP-62 NSCLC = system: HOP-62 NSCLC
EKVX NSCLC = system: EKVX NSCLC
NCI-H522 lung = system: NCI-H522 lung
NCI-H23 lung = system: NCI-H23 lung
IGROV1 ovarian = system: IGROV1 ovarian
M14 melanoma = system: M14 melanoma
ACHN renal = system: ACHN renal
SK-MEL-5 melanoma = system: SK-MEL-5 melanoma
CAKI-1 renal = system: CAKI-1 renal
SNB-75 CNS = system: SNB-75 CNS
OVCAR-5 ovarian = system: OVCAR-5 ovarian
SK-MEL-2 melanoma = system: SK-MEL-2 melanoma
PC-3 prostate = system: PC-3 prostate
SF-268 CNS = system: SF-268 CNS
TK-10 renal = system: TK-10 renal
OVCAR-4 ovarian = system: OVCAR-4 ovarian
SF-295 CNS = system: SF-295 CNS
RPMI-8226 leukemia = system: RPMI-8226 leukemia
HT29 colon = system: HT29 colon
OVCAR-8 ovarian = system: OVCAR-8 ovarian
OVCAR-3 ovarian = system: OVCAR-3 ovarian
SN12C renal = system: SN12C renal
MDA-MB-468 breast = system: MDA-MB-468 breast
U251 CNS = system: U251 CNS
HS 578T breast = system: HS 578T breast
MALME-3M melanoma = system: MALME-3M melanoma
K-562 leukemia = system: K-562 leukemia
NCI/ADR-RES ovarian = system: NCI/ADR-RES ovarian
SK-OV-3 ovarian = system: SK-OV-3 ovarian
T-47D breast = system: T-47D breast

Which results are given for `C=C1CCC2C3(C)COC(c4cc(F)cc(F)c4)OC3CCC2(C)C1C/C=C1/C(=O)OCC1O` (stereo not drawn)?
GI50 (MDA-MB-231 breast): 1.67 µM; TGI (MDA-MB-231 breast): 3.25 µM; GI50 (RXF 393 renal): 1.73 µM; TGI (RXF 393 renal): 3.23 µM; GI50 (A498 renal): 3.41 µM; TGI (A498 renal): 15.6 µM; GI50 (786-0 renal): 1.73 µM; TGI (786-0 renal): 3.13 µM; GI50 (COLO 205 colon): 1.86 µM; TGI (COLO 205 colon): 3.32 µM; GI50 (SF-539 CNS): 1.66 µM; TGI (SF-539 CNS): 3.02 µM; GI50 (MDA-MB-435): 1.55 µM; TGI (MDA-MB-435): 3.1 µM; GI50 (SR leukemia): 2.08 µM; TGI (SR leukemia): 5.23 µM; GI50 (HCC-2998 colon): 1.66 µM; TGI (HCC-2998 colon): 3.16 µM; GI50 (UACC-257 melanoma): 1.73 µM; TGI (UACC-257 melanoma): 3.44 µM; GI50 (SW-620 colon): 1.35 µM; TGI (SW-620 colon): 2.81 µM; GI50 (BT-549 breast): 1.41 µM; TGI (BT-549 breast): 2.73 µM; GI50 (MOLT-4 leukemia): 2.58 µM; TGI (MOLT-4 leukemia): 7.52 µM; GI50 (HOP-92 NSCLC): 1.77 µM; TGI (HOP-92 NSCLC): 3.82 µM; GI50 (NCI-H460 lung): 1.62 µM; TGI (NCI-H460 lung): 3.2 µM; GI50 (UACC-62 melanoma): 1.65 µM; TGI (UACC-62 melanoma): 3.29 µM; GI50 (SNB-19 CNS): 1.73 µM; TGI (SNB-19 CNS): 3.43 µM; GI50 (HCT-116 colon): 1.43 µM; TGI (HCT-116 colon): 2.93 µM; GI50 (NCI-H226 lung): 1.73 µM; TGI (NCI-H226 lung): 3.42 µM; GI50 (UO-31 renal): 1.41 µM; TGI (UO-31 renal): 2.7 µM; GI50 (A549 NSCLC): 2.55 µM; TGI (A549 NSCLC): 8.39 µM; GI50 (MCF7 breast): 1.18 µM; TGI (MCF7 breast): 2.6 µM; GI50 (DU-145 prostate): 2.21 µM; TGI (DU-145 prostate): 5.11 µM; GI50 (CCRF-CEM leukemia): 0.649 µM; TGI (CCRF-CEM leukemia): 4.19 µM; GI50 (HL-60(TB) leukemia): 1.35 µM; TGI (HL-60(TB) leukemia): 3.59 µM; GI50 (KM12 colon): 1.9 µM; TGI (KM12 colon): 3.86 µM; GI50 (HCT-15 colon): 1.44 µM; TGI (HCT-15 colon): 2.98 µM; GI50 (SK-MEL-28 melanoma): 1.77 µM; TGI (SK-MEL-28 melanoma): 3.21 µM; GI50 (LOX IMVI melanoma): 1.48 µM; TGI (LOX IMVI melanoma): 2.79 µM; GI50 (HOP-62 NSCLC): 1.78 µM; TGI (HOP-62 NSCLC): 3.44 µM; GI50 (EKVX NSCLC): 2.5 µM; TGI (EKVX NSCLC): 6.5 µM; GI50 (NCI-H522 lung): 1.64 µM; TGI (NCI-H522 lung): 3.23 µM; GI50 (NCI-H23 lung): 1.88 µM; TGI (NCI-H23 lung): 3.75 µM; GI50 (IGROV1 ovarian): 1.81 µM; TGI (IGROV1 ovarian): 3.53 µM; GI50 (M14 melanoma): 1.74 µM; TGI (M14 melanoma): 3.39 µM; GI50 (ACHN renal): 1.7 µM; TGI (ACHN renal): 3.07 µM; GI50 (SK-MEL-5 melanoma): 1.75 µM; TGI (SK-MEL-5 melanoma): 3.21 µM; GI50 (CAKI-1 renal): 1.62 µM; TGI (CAKI-1 renal): 3.01 µM; GI50 (SNB-75 CNS): 1.14 µM; TGI (SNB-75 CNS): 2.4 µM; GI50 (OVCAR-5 ovarian): 1.59 µM; TGI (OVCAR-5 ovarian): 3.21 µM; GI50 (SK-MEL-2 melanoma): 1.79 µM; TGI (SK-MEL-2 melanoma): 3.38 µM; GI50 (PC-3 prostate): 1.75 µM; TGI (PC-3 prostate): 3.6 µM; GI50 (SF-268 CNS): 1.84 µM; TGI (SF-268 CNS): 3.69 µM; GI50 (TK-10 renal): 1.68 µM; TGI (TK-10 renal): 3.25 µM; GI50 (OVCAR-4 ovarian): 1.85 µM; TGI (OVCAR-4 ovarian): 4.09 µM; GI50 (SF-295 CNS): 1.56 µM; TGI (SF-295 CNS): 2.98 µM; GI50 (RPMI-8226 leukemia): 2.05 µM; TGI (RPMI-8226 leukemia): 5.45 µM; GI50 (HT29 colon): 1.79 µM; TGI (HT29 colon): 3.61 µM; GI50 (OVCAR-8 ovarian): 1.77 µM; TGI (OVCAR-8 ovarian): 4.52 µM; GI50 (OVCAR-3 ovarian): 1.62 µM; TGI (OVCAR-3 ovarian): 3.12 µM; GI50 (SN12C renal): 1.52 µM; TGI (SN12C renal): 2.89 µM; GI50 (MDA-MB-468 breast): 1.73 µM; TGI (MDA-MB-468 breast): 3.16 µM; GI50 (U251 CNS): 1.58 µM; TGI (U251 CNS): 3.03 µM; GI50 (HS 578T breast): 2.11 µM; TGI (HS 578T breast): 5.61 µM; GI50 (MALME-3M melanoma): 1.69 µM; TGI (MALME-3M melanoma): 3.15 µM; GI50 (K-562 leukemia): 1.98 µM; TGI (K-562 leukemia): 6.17 µM; GI50 (NCI/ADR-RES ovarian): 1.82 µM; TGI (NCI/ADR-RES ovarian): 3.67 µM; GI50 (SK-OV-3 ovarian): 9.79 µM; TGI (SK-OV-3 ovarian): 22 µM; GI50 (T-47D breast): 1.43 µM; TGI (T-47D breast): 3.1 µM
